Experiments:
mOREG = target: T1, mOREG (Mus musculus, UniProt Q920P2); experiment: Luciferase reporter assay (CRE Firefly:Renilla), mOREG constructs; assay type: cell-based; conditions: Rho-mOREG, Lucy-mOREG and Lucy-Rho-mOREG, no RTP1S, eugenol 100-300 μM, P≦0.05, 300 μM vs 0 μM
T1 construct: The mOR-EG full-length construct, containing N-terminal Flag/Rho tags; expressed in transfected cells; host or cells: HEK293T
T1 sequence (Q920P2 1-313): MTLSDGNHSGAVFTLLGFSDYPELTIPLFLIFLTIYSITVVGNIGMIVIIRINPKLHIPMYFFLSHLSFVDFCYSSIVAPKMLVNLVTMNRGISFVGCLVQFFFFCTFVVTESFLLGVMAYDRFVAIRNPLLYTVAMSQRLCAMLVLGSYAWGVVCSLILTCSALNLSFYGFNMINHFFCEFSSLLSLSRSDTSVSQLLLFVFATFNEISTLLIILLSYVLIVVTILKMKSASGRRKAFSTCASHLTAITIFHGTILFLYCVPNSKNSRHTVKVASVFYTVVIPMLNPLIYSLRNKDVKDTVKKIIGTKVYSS
Procedure: (§1) Luciferase Assay. The luciferase assay was performed as previously described. Briefly, ORs were transfected into HEK293T cells along with constructs encoding for CREB-dependent luciferase (Firefly) and a constitutively expressed luciferase (Renilla). OR activation leads to a rise in cAMP which drives an increase in Firefly luciferase expression. Firefly activity is normalized to the activity of the Renilla luciferase to control for variation in cell number and transfection efficiency. Data were collected using a FLUOstar Omega automated platereader (BMG LabTech, Cary, N.C.). For some experiments, RTP1S was also transfected.
Statistical Analysis. One-way ANOVA analysis followed by the Student-Newman Keuls test was performed on the luciferase reporter assay to compare the doses of isovaleric acid (0.1-5 mM) or eugenol (100-300 μM) to the non-treated control (0 μM). As each condition was performed in triplicate, the analyses were done with an n=3, and P values≦0.05 were deemed significant. One-way ANOVE followed by Student-Newman Keuls was also used to analyze the surface expression data in FIG. 7. […]
As mOREG is one of the ORs that reach the cell surface under every condition tested, we expressed the OR with and without the Lucy and Rho tags and assessed its response to eugenol.

Olfr691 = target: T2, Olfr691 (Mus musculus, UniProt Q8VGW5); experiment: Luciferase reporter assay (CRE Firefly:Renilla), Olfr691 constructs; assay type: cell-based; conditions: 0.1-5 mM isovaleric acid
T2 construct: The other full-length ORs were amplified using primers which added appropriate restriction sites; expressed in transfected cells; host or cells: HEK293T
T2 sequence (Q8VGW5 1-322): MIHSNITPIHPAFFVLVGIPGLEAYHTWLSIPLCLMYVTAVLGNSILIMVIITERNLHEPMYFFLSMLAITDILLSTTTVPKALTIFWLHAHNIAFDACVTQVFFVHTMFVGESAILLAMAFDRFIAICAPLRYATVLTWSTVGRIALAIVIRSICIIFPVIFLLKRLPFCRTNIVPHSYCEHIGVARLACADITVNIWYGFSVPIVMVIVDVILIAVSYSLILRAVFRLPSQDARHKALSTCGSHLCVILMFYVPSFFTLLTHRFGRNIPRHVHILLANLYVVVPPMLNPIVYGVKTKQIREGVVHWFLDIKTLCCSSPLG
Procedure: as §1
Statistical Analysis. One-way ANOVA analysis followed by the Student-Newman Keuls test was performed on the luciferase reporter assay to compare the doses of isovaleric acid (0.1-5 mM) or eugenol (100-300 μM) to the non-treated control (0 μM). As each condition was performed in triplicate, the analyses were done with an n=3, and P values≦0.05 were deemed significant. One-way ANOVE followed by Student-Newman Keuls was also used to analyze the surface expression data in FIG. 7. A Student T-Test was performed on the ELISA to assess the significance of the increased protein expression (Control construct vs. Lucy construct for each OR, n=4 for each condition). P values≦0.05 were deemed significant. In both the luciferase reporter assay and the ELISA, the error bars represent the SEM.
To determine whether Lucy-tagged ORs expressed on the cell surface can still respond to their ligands in the absence of RTP1S, and to ensure that the Lucy tag is not altering ligand binding or detection, we assayed for a functional ligand response using a luciferase reporter assay. In this assay, OR-ligand binding leads to an increase in cAMP which drives the expression of a CRE luciferase. An increase in the Firefly (CRE-dependent luciferase): Renilla (constitutively activated luciferase) ratio indicates OR activation. Previously, it was determined that Olfr691 responds to isovaleric acid. […]

C=CCc1ccc(O)c(OC)c1 [eugenol]
OR activation (Firefly:Renilla ratio) (mOREG): dose-dependent activation

CC(C)CC(=O)O [isovaleric acid]
OR activation (Firefly:Renilla ratio) (Olfr691; Lucy-Rho-Olfr691 with and without RTP, P<0.007 vs 0 mM): dose-dependent manner
OR activation (Firefly:Renilla ratio) (Olfr691; Rho-Olfr691 co-expressed with RTP1S, P≦0.002 vs 0 mM): dose-dependent increase
OR activation (Firefly:Renilla ratio) (Olfr691; Rho-Olfr691 without RTP1S): not significantly activated at any concentration

From US9783585B2, “Compositions and methods for increasing the expression and signalling of proteins on cell surfaces” (JOHNS HOPKINS UNIVERSITY, priority 2013, dated 2017)
